According to patent US20240003914A1 (THE SCRIPPS RESEARCH INSTITUTE, priority 2020, published 2024):

Tests used:
C57BL/6 mice = test: Whole blood NAD levels after oral treatment; assay type: in vivo, mouse; details: 6 mg/kg SR005 or 100 mg/kg NAM, normalized by baseline (FIG. 8)
Source text: Blood was collected and NAD detected as described in FIGS. 1A-1C. NAD values were normalized by baseline level for each mouse. Each line represents data for one mouse.

NADases = test: NAD protection from degradation by NADases in brain homogenate; assay type: biochemical, mouse; details: inhibitor added to aliquots of a brain sample after homogenisation; duplicate samples (FIG. 1F)
Description: Brain homogenates are disrupted and clarified by sonication (0.5 second per cycle, 45 cycles, 50% power) followed by centrifugation at 12,000 rpm, RT for 5 minutes. Supernatants are collected and fractionated using Amicon Ultra-2 centrifugal units with a 30 kDa cut-off. Flow-through is collected and NAD is measured using a cycling assay (NAD+/NADH-GloTM (Promega). The NAD+/NADH-GloTM assay is a bioluminescent, homogeneous assay for the detection of total NAD metabolite levels comprising the oxidized and reduced forms of NAD (NAD+ and NADH, respectively). An NAD cycling enzyme is used to convert NAD+ to NADH. In the presence of NADH, the provided reductase enzyme reduces a proluciferin reductase substrate to form luciferin. Luciferin is then quantified using Ultra-Glo recombinant luciferase, and the light signal produced is proportional to the amount of NAD+ and NADH in the sample. Cycling between NAD+ and NADH by the NAD cycling enzyme and reductase increases assay sensitivity and provides selectivity for nonphosphorylated NAD+ and NADH compared to the phosphorylated forms NADP+ and NADPH. Reading is performed between 10 and 50 minutes during the linear increase of the signal in a luminescence reader. NAD values are normalized by total protein concentrations. […] Error bars of duplicate samples are shown. […] Error bars of duplicate samples are shown.

| Compound | blood NAD levels after treatment (C57BL/6 mice) | NAD protection from degradation by NADases (NADases) |
| --- | --- | --- |
| NC(=O)c1cccnc1 [NAM, nicotinamide] | Increased blood NAD levels |  |
| O=c1cc(-c2ccc(O)cc2)oc2cc(O)cc(O)c12 [apigenin] |  | absence of protection |
